Test results from ChEMBL document CHEMBL2413072, “Synthesis and in vitro anticancer studies of novel C-2 arylidene congeners of lantadenes” (2013).

Assays:
Type in all cases: functional
T47D [1] = test: Growth inhibition of human T47D cells assessed as cell growth at 10^-7 M by sulforhodamine B assay; details: read-out: Activity
UACC-62 = test: Growth inhibition of human UACC62 cells assessed as cell growth at 10^-6 M by sulforhodamine B assay; details: read-out: Activity
HCT-15 = test: Growth inhibition of human HCT15 cells assessed as cell growth at 10^-6 M by sulforhodamine B assay; details: read-out: Activity
SF-539 [2] = test: Growth inhibition of human SF539 cells by sulforhodamine B assay
T47D [3] = test: Growth inhibition of human T47D cells assessed as cell growth at 10^-6 M by sulforhodamine B assay; details: read-out: Activity
SF-295 = test: Growth inhibition of human SF295 cells by sulforhodamine B assay
[4] = Growth inhibition of human Hs 578T cells assessed as cell growth at 10^-6 M by sulforhodamine B assay; details: read-out: Activity
SW-620 [5] = test: Growth inhibition of human SW620 cells by sulforhodamine B assay
SF-268 [6] = test: Growth inhibition of human SF268 cells by sulforhodamine B assay
COLO 205 = test: Growth inhibition of human COLO205 cells assessed as cell growth at 10^-7 M by sulforhodamine B assay; details: read-out: Activity
[7] = Growth inhibition of human NCI-ADR-RES cells assessed as cell growth at 10^-7 M by sulforhodamine B assay; details: read-out: Activity
MCF7 [8] = test: Growth inhibition of human MCF7 cells assessed as cell growth at 10^-4 M by sulforhodamine B assay; details: read-out: Activity
MOLT-4 = test: Growth inhibition of human MOLT4 cells assessed as cell growth at 10^-8 M by sulforhodamine B assay; details: read-out: Activity
HCT-116 = test: Growth inhibition of human HCT116 cells assessed as cell growth at 10^-4 M by sulforhodamine B assay; details: read-out: Activity
OVCAR-4 [9] = test: Growth inhibition of human OVCAR4 cells assessed as cell growth at 10^-7 M by sulforhodamine B assay; details: read-out: Activity
OVCAR-4 [10] = test: Growth inhibition of human OVCAR4 cells assessed as cell growth at 10^-6 M by sulforhodamine B assay; details: read-out: Activity
SF-268 [11] = test: Growth inhibition of human SF268 cells assessed as cell growth at 10^-4 M by sulforhodamine B assay; details: read-out: Activity
SN12C = test: Growth inhibition of human SN12C cells assessed as cell growth at 10^-6 M by sulforhodamine B assay; details: read-out: Activity
RPMI-8226 [12] = test: Growth inhibition of human RPMI8226 cells assessed as cell growth at 10^-6 M by sulforhodamine B assay; details: read-out: Activity
OVCAR-8 [13] = test: Growth inhibition of human OVCAR8 cells assessed as cell growth at 10^-4 M by sulforhodamine B assay; details: read-out: Activity
PC-3 = test: Growth inhibition of human PC3 cells assessed as cell growth at 10^-6 M by sulforhodamine B assay; details: read-out: Activity
SW-620 [14] = test: Growth inhibition of human SW620 cells assessed as cell growth at 10^-4 M by sulforhodamine B assay; details: read-out: Activity
RPMI-8226 [15] = test: Growth inhibition of human RPMI8226 cells assessed as cell growth at 10^-7 M by sulforhodamine B assay; details: read-out: Activity
ACHN = test: Growth inhibition of human ACHN cells assessed as cell growth at 10^-8 M by sulforhodamine B assay; details: read-out: Activity
IGROV-1 = test: Growth inhibition of human IGROV1 cells assessed as cell growth at 10^-6 M by sulforhodamine B assay; details: read-out: Activity
SNB-19 = test: Growth inhibition of human SNB19 cells assessed as cell growth at 10^-6 M by sulforhodamine B assay; details: read-out: Activity
NCI-H522 = test: Growth inhibition of human NCI-H522 cells assessed as cell growth at 10^-6 M by sulforhodamine B assay; details: read-out: Activity
RXF 393 = test: Growth inhibition of human RXF393 cells assessed as cell growth at 10^-4 M by sulforhodamine B assay; details: read-out: Activity
HT-29 = test: Growth inhibition of human HT-29 cells by sulforhodamine B assay
NCI-H226 = test: Growth inhibition of human NCI-H226 cells assessed as cell growth at 10^-8 M by sulforhodamine B assay; details: read-out: Activity
OVCAR-4 [16] = test: Growth inhibition of human OVCAR4 cells by sulforhodamine B assay
KM12 = test: Growth inhibition of human KM12 cells assessed as cell growth at 10^-4 M by sulforhodamine B assay; details: read-out: Activity
SNB-75 = test: Growth inhibition of human SNB75 cells assessed as cell growth at 10^-7 M by sulforhodamine B assay; details: read-out: Activity
MCF7 [17] = test: Growth inhibition of human MCF7 cells assessed as cell growth at 10^-6 M by sulforhodamine B assay; details: read-out: Activity
OVCAR-8 [18] = test: Growth inhibition of human OVCAR8 cells by sulforhodamine B assay
CCRF-CEM = test: Growth inhibition of human CCRF-CEM cells assessed as cell growth at 10^-8 M by sulforhodamine B assay; details: read-out: Activity
OVCAR-3 = test: Growth inhibition of human OVCAR3 cells assessed as cell growth at 10^-6 M by sulforhodamine B assay; details: read-out: Activity
SF-539 [19] = test: Growth inhibition of human SF539 cells assessed as cell growth at 10^-7 M by sulforhodamine B assay; details: read-out: Activity
MDA-MB-435 = test: Growth inhibition of human MDA-MB-435 cells assessed as cell growth at 10^-4 M by sulforhodamine B assay; details: read-out: Activity
BT-549 = test: Growth inhibition of human BT549 cells assessed as cell growth at 10^-7 M by sulforhodamine B assay; details: read-out: Activity
M14 = test: Growth inhibition of human M14 cells assessed as cell growth at 10^-8 M by sulforhodamine B assay; details: read-out: Activity
OVCAR-5 = test: Growth inhibition of human OVCAR5 cells assessed as cell growth at 10^-4 M by sulforhodamine B assay; details: read-out: Activity
[20] = read-out: LC50 (the source's name)
[21] = read-out: pLC50 (the source's name) (converted)

C/C=C(/C)C(=O)O[C@@H]1CC(C)(C)C[C@H]2C3=CC[C@@H]4[C@@]5(C)CCC(=O)C(C)(C)[C@@H]5CC[C@@]4(C)[C@]3(C)CC[C@@]12C(=O)O [LANTADENE A]
growth at 0.1 µM (T47D [1]): 99% | growth at 1 µM (UACC-62): 70% | growth at 1 µM (HCT-15): 87% | GI50 (SF-539 [2]; read-out: GI50): 6.51 µM | CC50 (SF-539 [2]; [20]): > 100 µM | TGI (SF-539 [2]; read-out: TGI): > 100 µM | GI50 (SF-539 [2]; read-out: pGI50 (converted)): 6.46 µM | CC50 (SF-539 [2]; [21]): > 100 µM | TGI (SF-539 [2]; read-out: pTGI (converted)): > 100 µM | growth at 1 µM (T47D [3]): 93% | GI50 (SF-295; read-out: GI50): 2.77 µM | CC50 (SF-295; [20]): > 100 µM | TGI (SF-295; read-out: TGI): 15.4 µM | GI50 (SF-295; read-out: pGI50 (converted)): 2.75 µM | CC50 (SF-295; [21]): > 100 µM | TGI (SF-295; read-out: pTGI (converted)): 15.5 µM | growth at 1 µM [4]: 91% | GI50 (SW-620 [5]; read-out: GI50): 4.48 µM | CC50 (SW-620 [5]; [20]): > 100 µM | TGI (SW-620 [5]; read-out: TGI): > 100 µM | GI50 (SW-620 [5]; read-out: pGI50 (converted)): 4.47 µM | CC50 (SW-620 [5]; [21]): > 100 µM | TGI (SW-620 [5]; read-out: pTGI (converted)): > 100 µM | GI50 (SF-268 [6]; read-out: GI50): 5.96 µM | LC50 (SF-268 [6]; read-out: LC50): > 100 µM | TGI (SF-268 [6]; read-out: TGI): > 100 µM | GI50 (SF-268 [6]; read-out: pGI50 (converted)): 6.03 µM | LC50 (SF-268 [6]; read-out: pLC50 (converted)): > 100 µM | TGI (SF-268 [6]; read-out: pTGI (converted)): > 100 µM | growth at 0.1 µM (COLO 205): 110% | growth at 0.1 µM [7]: 104% | growth at 100 µM (MCF7 [8]): 15% | growth at 0.01 µM (MOLT-4): 104% | growth at 100 µM (HCT-116): 11% | growth at 0.1 µM (OVCAR-4 [9]): 95% | growth at 1 µM (OVCAR-4 [10]): 86% | growth at 100 µM (SF-268 [11]): 34% | growth at 1 µM (SN12C): 85% | growth at 1 µM (RPMI-8226 [12]): 64% | growth at 100 µM (OVCAR-8 [13]): 24% | growth at 1 µM (PC-3): 68% | growth at 100 µM (SW-620 [14]): 22% | growth at 0.1 µM (RPMI-8226 [15]): 91% | growth at 0.01 µM (ACHN): 110% | growth at 1 µM (IGROV-1): 108% | growth at 1 µM (SNB-19): 91% | growth at 1 µM (NCI-H522): 94% | growth at 100 µM (RXF 393): -15% | GI50 (HT-29; read-out: GI50): 4.32 µM | LC50 (50% cell kill) (HT-29; read-out: LC50): > 100 µM | TGI (HT-29; read-out: TGI): > 100 µM | GI50 (HT-29; read-out: pGI50 (converted)): 4.37 µM | LC50 (50% cell kill) (HT-29; read-out: pLC50 (converted)): > 100 µM | TGI (HT-29; read-out: pTGI (converted)): > 100 µM | growth at 0.01 µM (NCI-H226): 85% | GI50 (OVCAR-4 [16]; read-out: GI50): 5.64 µM | CC50 (OVCAR-4 [16]; [20]): > 100 µM | TGI (OVCAR-4 [16]; read-out: TGI): > 100 µM | GI50 (OVCAR-4 [16]; read-out: pGI50 (converted)): 5.62 µM | CC50 (OVCAR-4 [16]; [21]): > 100 µM | TGI (OVCAR-4 [16]; read-out: pTGI (converted)): > 100 µM | growth at 100 µM (KM12): 20% | growth at 0.1 µM (SNB-75): 89% | growth at 1 µM (MCF7 [17]): 87% | GI50 (OVCAR-8 [18]; read-out: GI50): 4.97 µM | CC50 (OVCAR-8 [18]; [20]): > 100 µM | TGI (OVCAR-8 [18]; read-out: TGI): > 100 µM | GI50 (OVCAR-8 [18]; read-out: pGI50 (converted)): 5.01 µM | CC50 (OVCAR-8 [18]; [21]): > 100 µM | TGI (OVCAR-8 [18]; read-out: pTGI (converted)): > 100 µM | growth at 0.01 µM (CCRF-CEM): 98% | growth at 1 µM (OVCAR-3): 105% | growth at 0.1 µM (SF-539 [19]): 103% | growth at 100 µM (MDA-MB-435): 25% | growth at 0.1 µM (BT-549): 95% | growth at 0.01 µM (M14): 96% | growth at 100 µM (OVCAR-5): 42%
